Values after ≈ are worked out from the molar mass of the structure shown. Values joined by “and” are separate entries in the source; they are usually repeats but may differ in a detail not shown here. Identical values can stand only once. Like-named read-outs stand apart in the source and are kept apart here.
Columns and labels:
M. bovis ATCC BAA-935 = assay: microbe, parasite or virus in culture; type: cell-based; settings: Mycobacterium tuberculosis variant bovis, ATCCBAA935
[1] = tested on: M. pinnipedii ATCC BAA-688; assay: MIC by agar proportion method, standard strain; type: cell-based; settings: ATCCBAA688; M. pinnipedii ATCC BAA-688; agar proportion method; read-out: MIC
[2] = tested on: standard strains of nonmycobacterial aerobic and anaerobic bacteria; assay: Activity against nonmycobacterial bacteria; type: cell-based; settings: data not shown
M. tuberculosis Kurono [3] = type: in vivo; settings: oral 5 days per week, 4 weeks; OPC-167832 0.625, DMD 0.625, BDQ 5, LVX 300, LZD 100 mg/kg
[4] = tested on: growing M. tuberculosis H37Rv; type: cell-based
[5] = tested on: M. tuberculosis ATCC 35822 (H37Rv INH-R); assay: MIC by agar proportion method, standard strain; type: cell-based; settings: Mycobacterium tuberculosis; […]; agar proportion method; read-out: MIC
[6] = tested on: M. tuberculosis ATCC 35838 (H37Rv RIF-R); assay: MIC by agar proportion method, standard strain; type: cell-based; settings: Mycobacterium tuberculosis; […]; agar proportion method; read-out: MIC
M. caprae ATCC BAA-824 = assay: MIC by agar proportion method, standard strain; type: cell-based; settings: ATCCBAA824; M. caprae ATCC BAA-824; agar proportion method; read-out: MIC
[7] = tested on: M. tuberculosis ATCC 35812 (Kurono); assay: MIC by agar proportion method, standard strain; type: cell-based; settings: Mycobacterium tuberculosis, ATCC35812; ATCC 35812 (Kurono); agar proportion method; read-out: MIC
[8] = lung
[9] = tested on: M. tuberculosis ATCC 27294 (H37Rv); assay: MIC by agar proportion method, standard strain; type: cell-based; settings: Mycobacterium tuberculosis; ATCC 27294 (H37Rv); agar proportion method; […]; read-out: MIC
[10] = tested on: M. tuberculosis ATCC 35837 (H37Rv EMB-R); assay: MIC by agar proportion method, standard strain; type: cell-based; settings: Mycobacterium tuberculosis; […]; agar proportion method; read-out: MIC
[11] = tested on: M. tuberculosis ATCC 35828 (H37Rv PZA-R); assay: MIC by agar proportion method, standard strain; type: cell-based; settings: Mycobacterium tuberculosis; […]; agar proportion method; read-out: MIC
M. africanum ATCC 25420 = assay: MIC by agar proportion method, standard strain; type: cell-based; settings: ATCC25420; M. africanum ATCC 25420; agar proportion method; read-out: MIC
[12] = tested on: intracellular M. tuberculosis H37Rv; assay: microbe, parasite or virus in culture; type: cell-based
M. tuberculosis Kurono [13] = assay: Monotherapy in a mouse model of chronic TB; type: in vivo
[14] = tested on: intracellular M. tuberculosis Kurono; assay: microbe, parasite or virus in culture; type: cell-based
[15] = tested on: 27 strains of M. tuberculosis; assay: Checkerboard agar dilution assay; type: cell-based; settings: combined with DMD, MXF, LVX, BDQ, or LZD
Description: FIG 4 In vitro combination effects of OPC-167832 and other anti-TB agents (checkerboard assay). The in vitro combination effects of OPC-167832 and existing anti-TB agents against 27 strains of M. tuberculosis were examined by the checkerboard agar dilution method. CI, confidence interval.
The checkerboard procedure was performed using the MICs of tested agents against the bacterial strains established by an agar dilution method reported previously ([36]). The level of synergy was determined by calculating the FIC index based on the following formulas: ΣFIC = FIC of compound A + FIC of compound B; FIC of compound A = MIC of compound A in combination ÷ MIC of compound A alone; FIC of compound B = MIC of compound B in combination ÷ MIC of compound B alone. The average ΣFIC value was interpreted using the European Committee on Antimicrobial Susceptibility Testing criteria ([37]) with the following values: ≤0.5, synergy; >0.5 to 1, additive effect; >1 to 2, indifference; >2, antagonism). The averages of the ΣFIC values and the 95% confidence intervals for the tested bacterial strains were calculated.

in vivo = settings: ICR, mouse
M. microti ATCC 11152 = assay: MIC by agar proportion method, standard strain; type: cell-based; settings: ATCC11152; M. microti ATCC 11152; agar proportion method; read-out: MIC
[16] = tested on: clinically isolated M. tuberculosis strains; type: cell-based; settings: summary in abstract
[17] = tested on: M. tuberculosis ATCC 35820 (H37Rv SM-R); assay: MIC by agar proportion method, standard strain; type: cell-based; settings: Mycobacterium tuberculosis; […]; agar proportion method; read-out: MIC
[18] = lungs of mice; cited from earlier work
M. tuberculosis = settings: cited from earlier work

## O=C1CCc2c(OC[C@]3(O)CCN(c4c(F)cc(Cl)cc4F)C[C@H]3O)ccc(F)c2N1 [OPC-167832]
M. bovis ATCC BAA-935
  MIC: 2 ng/mL (≈ 4.38 nM)
[1]
  MIC: 0.5 ng/mL (≈ 1.09 nM)
[2]
  activity against nonmycobacterial aerobic and anaerobic bacteria: minimal or no activity
M. tuberculosis Kurono [3]
  lung CFU compared to the vehicle group, single agent: significant decrease of lung CFU
[4]
  concentration at which killing activity was achieved: 0.0005 µg/mL
[5]
  MIC: 0.24 ng/mL (≈ 0.525 nM)
[6]
  MIC: 0.5 ng/mL (≈ 1.09 nM)
M. caprae ATCC BAA-824
  MIC: 1 ng/mL (≈ 2.19 nM)
[7]
  MIC: 0.5 ng/mL (≈ 1.09 nM)
[8]; 0.625 mg/kg oral, t: 8h
  AUCt: 505 ng·h/g
[8]; 1.25 mg/kg oral, t: 8h
  AUCt: 909 ng·h/g
[8]; 2.5 mg/kg oral, t: 8h
  AUCt: 2133 ng·h/g
[8]; 5 mg/kg oral, t: 12h
  AUCt: 4742 ng·h/g
[8]; 10 mg/kg oral, t: 12h
  AUCt: 7410 ng·h/g
[9]
  MIC: 0.5 ng/mL (≈ 1.09 nM)
[10]
  MIC: 2 ng/mL (≈ 4.38 nM)
[11]
  MIC: 1 ng/mL (≈ 2.19 nM)
M. africanum ATCC 25420
  MIC: 2 ng/mL (≈ 4.38 nM)
[12]
  concentration at which intracellular bactericidal activity was saturated: ≥ 0.004 µg/mL
[12]; H37Rv in THP-1-derived macrophage-like cells, 3 days
  bactericidal activity against intracellular bacilli: killed the intracellular bacilli
[12]; Mycobacterium tuberculosis, H37RV, THP-1, read-out: 90% inhibitory concentration (IC90)
  IC90: 4.8 ng/mL (≈ 10.5 nM)
M. tuberculosis Kurono [13]; 0.625, 1.25, 2.5, 5 and 10 mg/kg oral daily, 4 weeks, ICR female mice
  lung CFU compared to the vehicle group: significantly reduced lung CFU
M. tuberculosis Kurono [13]; mouse model of chronic TB, oral
  minimum effective dose: 0.625 mg/kg
[14]; Kurono in THP-1-derived macrophage-like cells, 3 days
  bactericidal activity against intracellular bacilli: killed the intracellular bacilli
[14]; Mycobacterium tuberculosis, THP-1, read-out: 90% inhibitory concentration (IC90)
  IC90: 2.7 ng/mL (≈ 5.91 nM)
[15]
  interactive effect (mean FIC index): indifferent effect
In vivo
  Kp: 1.67 to 1.96
In vivo; female, po
  Kp: ~2
  Tmax: 0.5 to 1 h
In vivo; female, po, 0.625 mg/kg
  AUC(0-t): 283 ng·h/mL
  Cmax: 162 ng/g
  Tmax: 1 h
In vivo; female, po, 0.625 mg/kg, t1/2, lung, 0.625 mg/kg oral, calculated 2 - 8h
  half-life: 1.4 h
In vivo; female, po, 0.625 mg/kg, t1/2, plasma, 0.625 mg/kg oral, calculated 2 - 8h
  half-life: 1.6 h
In vivo; female, po, 1.25 mg/kg
  AUC(0-t): 543 ng·h/mL
  Cmax: 303 ng/g and 200 ng/mL
  Tmax: 1 h
In vivo; female, po, 1.25 mg/kg, t1/2, lung, 1.25 mg/kg oral, calculated 4 - 8h
  half-life: 2 h
In vivo; female, po, 1.25 mg/kg, t1/2, plasma, 1.25 mg/kg oral, calculated 2 - 12h
  half-life: 1.5 h
In vivo; female, po, 2.5 mg/kg
  AUC(0-t): 1140 ng·h/mL
  Cmax: 314 ng/mL and 651 ng/g
  Tmax: 0.5 h
In vivo; female, po, 2.5 mg/kg, t1/2, lung, 2.5 mg/kg oral, calculated 2 - 8h
  half-life: 1.3 h
In vivo; female, po, 2.5 mg/kg, t1/2, plasma, 2.5 mg/kg oral, calculated 6 - 12h
  half-life: 1.3 h
In vivo; female, po, 5 mg/kg
  AUC(0-t): 2650 ng·h/mL
  Cmax: 758 ng/mL and 1360 ng/g
  Tmax: 1 h
In vivo; female, po, 5 mg/kg, t1/2, lung, 5 mg/kg oral, calculated 2 - 12h
  half-life: 2.1 h
In vivo; female, po, 5 mg/kg, t1/2, plasma, 5 mg/kg oral, calculated 2 - 12h
  half-life: 2.1 h
In vivo; female, po, 10 mg/kg
  AUC(0-t): 3780 ng·h/mL
  Cmax: 1090 ng/mL and 2220 ng/g
  Tmax: 1 h
In vivo; female, po, 10 mg/kg, t1/2, lung, 10 mg/kg oral, calculated 6 - 12h
  half-life: 2.1 h
In vivo; female, po, 10 mg/kg, t1/2, plasma, 10 mg/kg oral, calculated 2 - 12h
  half-life: 1.6 h
In vivo; female, po, half-life (t1/2), plasma, oral doses 0.625 to 10 mg/kg
  half-life: 1.3 to 2.1 h
M. microti ATCC 11152
  MIC: 1 ng/mL (≈ 2.19 nM)
[16]
  MICs for Mycobacterium tuberculosis (overall range): 0.00024 to 0.002 µg/mL
[17]
  MIC: 1 ng/mL (≈ 2.19 nM)

## O=c1nc(N2CCN(CC3CCCCC3)CC2)sc2c([N+](=O)[O-])cc(C(F)(F)F)cc12 [PBTZ169]
[18]
  Kp (tissue to plasma partition coefficient), lungs: 0.415

## CCOC(=O)NC(=O)c1ccsc1NC(=O)c1nc2ccccc2s1 [TCA1]
M. tuberculosis
  MIC: 190 ng/mL (≈ 506 nM)

From PMC7269503 (Antimicrobial Agents and Chemotherapy, 2020)
